Assay results: patent US5268389A, “Thiocarboxylate ester compounds compositions containing the same” (priority 1990, dated 1993)
One block for each compound: values may come before it.

What was measured:
HIV [1] = assay: Reduction of HIV cytopathic effect, MT2C (MT2 cells inoculated with cultured virus-infected MT2 cells); format: cell-based; details: Human immunodeficiency virus 1, MT2, MT2 cells inoculated with cultured viral infected MT2 cells; read-out: Activity of Anti-HIV Compounds (EC50), MT2C
Procedure: (§1) The compounds of Examples were tested for anti-AIDS activity by subjecting them to standard National Cancer Institute ("NCI") in vitro screening procedures. In carrying out each test, two blanks were run. In the first blank, HIV and a culture of a standard human cell line were incubated together to measure the infectivity of the virus. The viability of the cells was measured after holding for six or seven days. In an "effective" test, most cells were infected before the holding period was complete.
(§2) In the second blank, the cell line culture and the compound being tested (but not virus) were incubated together to measure the toxicity of the drug to the cellline. The viability of the cells was measured as a function of concentration of the compound, after holding for seven days. […]
(§3) Finally, the protective effects of the test compounds were measured. Each cell culture and test compound were incubated with the virus and the viability of the cells was measured as a function of compound concentration after holding for six or seven days. […] At this point, cell viability increases steadily toward 100% unless the toxic effect of the compound (as measured in the second blank) takes effect. […] The therapeutic index TI50 is calculated as IC50/EC50.
(§4) Values of test compound concentrations required for between 20 and 50% reduction of the viral cytopathic effect can also be determined. […]

HIV [2] = assay: Reduction of HIV cytopathic effect, MT2V (MT2 cells, free virus); format: cell-based; details: Human immunodeficiency virus 1, read-out: Activity of Anti-HIV Compounds (EC50), MT2V
Procedure: as §1, §2, §3, §4

HIV [3] = assay: Reduction of HIV cytopathic effect, CEMC (CEM cells, virus previously cultured with host cells); format: cell-based
Procedure: as §1
(§5) In the second blank, the cell line culture and the compound being tested (but not virus) were incubated together to measure the toxicity of the drug to the cellline. The viability of the cells was measured as a function of concentration of the compound, after holding for seven days. Typically, the cells survive at low compound concentrations, but at some higher concentration, toxicity of the compound is manifested and the cells die. The concentration of the test compound that results in 50% inhibition of cell growth is defined as the IC50.
Finally, the protective effects of the test compounds were measured. Each cell culture and test compound were incubated with the virus and the viability of the cells was measured as a function of compound concentration after holding for six or seven days. If the compound is active in protecting the cells against the virus, there is typically low cell viability until an effective concentration of the test compound is reached. At this point, cell viability increases steadily toward 100% unless the toxic effect of the compound (as measured in the second blank) takes effect. […] The therapeutic index TI50 is calculated as IC50/EC50.
as §4
5) Individual wells are analyzed spectrophotometrically to quantity formazan production, and in addition are viewed microscopically for detection of viable cells and confirmation of protective activity. […]

HIV [4] = assay: microbe, parasite or virus in culture; format: cell-based
Procedure: as §1, §5
(§6) Finally, the protective effects of the test compounds were measured. Each cell culture and test compound were incubated with the virus and the viability of the cells was measured as a function of compound concentration after holding for six or seven days. If the compound is active in protecting the cells against the virus, there is typically low cell viability until an effective concentration of the test compound is reached. At this point, cell viability increases steadily toward 100% unless the toxic effect of the compound (as measured in the second blank) takes effect. The concentration of the test compound that results in 50% "control," i.e., a 50% reduction of the viral cytopathic effect, is defined as the EC 50. The therapeutic index TI50 is calculated as IC50/EC50.
(§7) Values of test compound concentrations required for between 20 and 50% reduction of the viral cytopathic effect can also be determined. Such compounds are classified as moderately active.
(§8) The compounds were tested to determine their reduction of HIV cytopathic effect on the human cell lines CEM and MT2. Tests were done by innoculating these cell lines either with free HIV (V) or with a virus Previously cultured with host cells (C). Thus, in Table III the designation CEMV means CEM line cells innoculated with free virus and MT2C means MT2 cells innoculated with cultured viral infected MT2 cells. In some cases the compound was also tested on a cell line together with a sub-effective amount of the known HIV viricide AZT. This is done to test possible synergistic effects. Such a test on the CEM line is denoted CEMZ.
(§9) 1) T4 lymphocytes (CEM cell line) are exposed to HIV at a virus to cell ratio of approximately 0.05 and plated along with non-infected control cells in 96-well microtiter plates.
(§10) 2) Each candidate agent is dissolved in dimethyl sulfoxide (unless otherwise indicated), then diluted 1:200 in cell culture medium. Further dilutions (five-fold) are prepared before adding to an equal volume of medium containing either infected or noninfected cells.
(§11) 3) Cultures are incubated at 37° C. in a 5% carbon dioxide atmosphere for seven days (if six days the CEMV test is identified as CEM-6).
(§12) 4) The tetrazolium salt, XTT, is added to all wells, and cultures are incubated to allow formazan color development by viable cells.
(§13) 5) Individual wells are analyzed spectrophotometrically to quantity formazan production, and in addition are viewed microscopically for detection of viable cells and confirmation of protective activity.
(§14) 6) Drug-treated virus-infected cells are compared with drug-treated non-infected cells and with other appropriate controls (untreated infected and untreated non-infected cells, drug-containing wells without cells, etc.) on the same plate.
7) A determination of activity is made. […]

HIV [5] = assay: Reduction of HIV cytopathic effect, CEMZ (CEM line with sub-effective amount of AZT); format: cell-based; details: Human immunodeficiency virus 1, CCRF-CEM, CEM cells, read-out: Activity of Anti-HIV Compounds (EC50), CEMZ
Procedure: as §1, §5, §6, §7, §8

[6] = Toxicity of test compound to uninfected CEM cell line (growth inhibition); format: cell-based, human; details: human, cem cells, read-out: UNINFECTED CULTURE Response (%)
Procedure: as §5, §9, §10, §11, §12, §13, §14
(§15) The compound of Example 3, viz., methyl 2-chloro-5-[[(5,6-dihydro-2-methyl-1,4-oxathiin-3-yl)carbonyl]amino]benzoate, was tested against the H9/HTLV-IIIB (HIV-I) virus employing the CEM line of host cells and using free virus innoculation (denoted CEM-V). […] All concentrations are expressed in moles per liter.
(§16) The dashed line connecting the square symbols depicts the percentage of surviving uninfected cells treated with the sample relative to the same uninfected, untreated controls. This line expresses the in-vitro growth inhibitory properties of the sample and represents the second blank test.

CEM cells = assay: as above; format: cell-based, human; details: Homo sapiens, CCRF-CEM; CEM cells, uninfected, Table III; read-out: IC50 (50% inhibition of cell growth)
Procedure: as §5, §9, §10, §11, §12, §13, §14, §15, §16

HIV [7] = assay: HIV antiviral activity with addition delayed after infection; format: cell-based
[8] = system: succinate dehydrogenase complex; details: mitochondria from Ustilago maydis, White et al. (1978); cited from earlier work
[9] = CEM cells, free HIV, read-out: Activity of Anti-HIV Compounds (EC50), CEMV
[10] = Human immunodeficiency virus 1, CCRF-CEM, CEM cells, free HIV, read-out: Activity of Anti-HIV Compounds (EC50), CEMV

SMILES: CCOC(=O)c1cccc(NC(=O)C2=C(C)OCCS2)c1 [Compound 8, Ethyl 3-[[(5,6-dihydro-2-methyl-1,4-oxathiin-3-yl)carbonyl]amino]benzoate]
- Activity class of Anti-HIV Compounds, CEMC (HIV [3]; inhibition of viral cytopathic effect): MA (moderate activity (MA), that is, inhibition between approximately 20 and 50%)
- inhibition of succinate dehydrogenase complex [8]: inhibitors of succinate dehydrogenase complex

SMILES: Cc1ccoc1C(=O)Nc1ccc(Cl)c(C(=O)OC(C)C)c1 [Compound 17, 1-Methylethyl 2-chloro-5-[[(3-methyl-2-furanyl)carbonyl]amino]benzoate]
- EC50 (HIV [4]; [10]): 3.3 µM
- EC50 (HIV [5]): 7900 nM

SMILES: Cc1ccccc1C(=O)Nc1ccc(Cl)c(C(=O)OC(C)C)c1 [Compound 23, 1-Methylethyl 2-chloro-5-[(2-methylbenzoyl)amino]benzoate]
- EC50 (HIV [4]; [9]): 5.6 µM
- EC50 (HIV [4]; [10]): 5.8 µM
- EC50 (HIV [5]): 1100 nM

Now from value to compound, other results behind:

- EC50 (HIV [1]): 3.2 µM
- EC50 (HIV [2]): 14.4 µM
- EC50 (HIV [4]; [9]): 1.3 µM
- EC50 (HIV [5]): 1800 nM
SMILES: CC1=C(C(=O)Nc2cc(C(=O)OC(C)C)c(Cl)cc2F)SCCO1 [Compound 2, 1-Methylethyl 2-chloro-5-[[(5,6-dihydro-2-methyl-1,4-oxathiin-3-yl)carbonyl]amino]-4-fluorobenzoate]
- EC50 (HIV [3]; Human immunodeficiency virus 1, CCRF-CEM, read-out: Activity of Anti-HIV Compounds (EC50), CEMC): 3.5 µM

- EC50 (HIV [4]; Human immunodeficiency virus 1, IIIB, CEM-V, H9/HTLV-IIIB (HIV-I), Table III, read-out: EC50 (50% reduction in the viral cytopathic effect)): 1.91 µM
SMILES: COC(=O)c1cc(NC(=O)C2=C(C)OCCS2)ccc1Cl [Compound 3, Methyl 2-chloro-5-[[(5,6-dihydro-2-methyl-1,4-oxathiin-3-yl)carbonyl]amino]benzoate]
- concentration of maximum effect (HIV [4]; CEM-V, Figure I, point 6): about 1.7×10^-5 molar
- CONCLUSION (HIV [4]; CEM-V, Table III): ACTIVE
- viability at 172 µM (HIV [4]; Human immunodeficiency virus 1, CCRF-CEM, 1.72 × 10^-4 Molar, read-out: INFECTED CULTURE Response (%)): 10.7%
- viability at 17.2 µM (HIV [4]; Human immunodeficiency virus 1, CCRF-CEM, 1.72 × 10^-5 Molar, read-out: INFECTED CULTURE Response (%)): 89.2%
- viability at 0.172 µM (HIV [4]; Human immunodeficiency virus 1, CCRF-CEM, 1.72 × 10^-7 Molar, read-out: INFECTED CULTURE Response (%)): 23.3%
- viability at 54.4 µM (HIV [4]; Human immunodeficiency virus 1, CCRF-CEM, 5.44 × 10^-5 Molar, read-out: INFECTED CULTURE Response (%)): 86.1%
- viability at 5.45 µM (HIV [4]; Human immunodeficiency virus 1, CCRF-CEM, 5.45 × 10^-6 Molar, read-out: INFECTED CULTURE Response (%)): 78.8%
- viability at 0.546 µM (HIV [4]; Human immunodeficiency virus 1, CCRF-CEM, 5.46 × 10^-7 Molar, read-out: INFECTED CULTURE Response (%)): 15.7%
- viability at 0.0547 µM (HIV [4]; Human immunodeficiency virus 1, CCRF-CEM, 5.47 × 10^-8 Molar, read-out: INFECTED CULTURE Response (%)): 15.3%
- minimal effective concentration (HIV [4]; Human immunodeficiency virus 1, CEM-V, Figure I, point 5, read-out: concentration at which the compound began to show inhibition of the viral cytopathic effect): ~0.55 µM
- viability at 168 h, 172 µM ([6]; 1.72 × 10^-4 Molar): 10.1%
- viability at 168 h, 17.2 µM ([6]; 1.72 × 10^-5 Molar): 95.7%
- viability at 168 h, 1.72 µM ([6]; 1.72 × 10^-6 Molar): 84.6%
- viability at 168 h, 0.172 µM ([6]; 1.72 × 10^-7 Molar): 86.8%
- viability at 168 h, 54.4 µM ([6]; 5.44 × 10^-5 Molar): 97%
- viability at 168 h, 5.45 µM ([6]; 5.45 × 10^-6 Molar): 108%
- viability at 168 h, 0.546 µM ([6]; 5.46 × 10^-7 Molar): 84%
- viability at 168 h, 0.0547 µM ([6]; 5.47 × 10^-8 Molar): 86.8%
- IC50 (CEM cells): 101 µM
- protection with delayed addition (HIV [7]; delays of up to twenty hours): delays of up to twenty hours will still offer some protection
- full HIV antiviral activity after infection (HIV [7]; up to eight hours after infection): full HIV antiviral activity for up to eight hours after infection

- EC50 (HIV [5]): 900 nM
SMILES: Cc1oc(C)c(C(=O)Nc2ccc(Cl)c(C(=O)OC(C)C)c2)c1C [Compound 16, 1-Methylethyl 2-chloro-5-[[(2,4,5-trimethyl-3-furanyl)carbonyl]amino]benzoate]
